The results in this text go back to US6413934B1, “Streptavidin mutants having secondary functional domains” (University of Washington, priority 1998, dated 2002).

Numbering of substitutions follows the chain as printed. Like-named read-outs stand apart in the source and are kept apart here.

For assay [1], the target named is integrin receptors (on rat aortic endothelial cells). Description: cell-based or functional assay.
For assay [2], the system named is Rat aortic endothelial cells. Description: peptide inhibition of endothelial cell adhesion to FN-SA and OSTP-SA. The note with it: for inhibitory effect on cell adhesion: soluble peptide preincubated with cells 15 minutes. It counts as cell-based. The method, then:
To confirm that the observed cell adhesion was directly RGD dependent, inhibition studies were conducted with GRGDSP (amino acids 89 to 94 of SEQ ID NO:2), GRGESP (SEQ ID NO:8), and GRADSP (SEQ ID NO:9) peptides.
Synthetic hexapeptides GRGDSP (amino acids 89 to 94 of SEQ ID NO:2), GRGESP (SEQ ID NO:8), and GRADSP (SEQ ID NO:9) were purchased from Gibco BRL. The inhibition assay was performed with the same protocol as for the cell adhesion assay except that the cells were incubated with the peptides for 15 minutes at room temperature prior to being plated onto the protein-coated wells.

Assay [3] deals with αvβ3 integrin present on the melanoma cells. Description: peptide and antibody inhibition of melanoma cell adhesion to RGD streptavidin mutants. The assay is classed as cell-based. The note with it: human melanoma cells; antibodies at 10 μg/ml. The protocol: Melanoma cell adhesion assays on streptavidin coated polystyrene dishes were performed as described above for endothelial cell adhesion assays, except that DMEM with 0.1% BSA and 10 mM HEPES was used as culture medium and 2×10^5 cells were added to each well. Moαv cells that express high levels of αvβ3 integrin were derived from M21 melanoma cells. Adhesion assays were performed on self assembled monolayers constructed on 24 well tissue culture polystyrene dishes. The dishes were evaporated with about 400A gold, then incubated with a 0.1 mM ethanolic thiol solution of 20% biotinylated alkylthiol (BAT) and 80% polyethylene glycol (PEG) overnight. The wells were rinsed three times with 100% ethanol, blown dry with nitrogen, then incubated with 0.05 mg/ml of streptavidin in PBS (wild type or mutant) at 37° C. for one hour with side to side rocking. The protein solution was then removed, and the wells were rinsed three times with PBS before addition of cells. Antibody inhibition assays were performed essentially identically as for the RGD/RGE inhibition assays. LM609 and control were obtained from Chemicon International, Inc. (Calif.) and were used at 1:1000 dilution (10 μg/ml).

A short description of assay [4]: off-rate measurement with tritiated biotin. It counts as binding. The note with it: 25° C., PBS pH 7.0. The method, then: Since the mutations occur in a loop opposite from the biotin binding pocket, the rational design of the molecule should obviate any effect of reducing the off-rate, or dissociation constant of streptavidin. This indeed was observed by experimental koff values for the RGD mutants that are within the standard deviation of previously calculated values for wild type streptavidin. Off-rate measurements were performed at 25° C. to quantitatively characterize the biotin affinity of the mutants and compare the results of the binding affinity of wild type streptavidin. Tritiated biotin, “hot” because it is radioactively labeled, was added to samples of the mutant proteins in a PBS solution, pH 7.0, and allowed to equilibrate for 1 to 2 hours. The off-rate reaction was then initiated by the addition of 5 μL of 15 mM “cold” biotin (non-radioactive) in PBS. As the tritiated biotin dissociated from the streptavidin mutants, aliquots were taken at fixed times and scintillation counts were performed to analyze the beta emission of the tritiated biotin. The natural logarithm of the bound tritiated fractions was plotted versus time to attain the off-rate koff, which is calculated from a linear regression of the data points.

In assay [5] the test system is Rat aortic endothelial cells. Kind of assay: endothelial cell adhesion assay on streptavidin-coated wells. The assay is classed as cell-based. The method, then:
Rat aortic endothelial cells were cultured in MDCB 131 media (Gibco BRL) with fetal bovine serum and used in the cell adhesion assays. Wild type and RGD streptavidin mutants were incubated in 96 well polystyrene plates overnight at 4° C. at various concentrations and then blocked with 1% BSA in PBS for 1 hour at 37° C. prior to the plating of cells (n=3). Alternatively, biotinylated BSA was incubated in the 96 wells overnight at 4° C., blocked with 1% BSA in PBS for one hour at 37° C., and then streptavidin (wild type or RGD) was incubated in the wells for one hour at 37° C. The protein solution was aspirated and the wells rinsed with sterile PBS before 50,000 cells were plated onto the protein coated wells for one hour at 37° C. The media was removed and the wells were rinsed twice with warm PBS (37° C.). The adherent cells were fixed with 4% paraformaldehyde (PFA) for 5 minutes and stained with 0.5% toluidine blue in 4% PFA for another 5 minutes at room temperature before the wells were rinsed by immersing the plate into a large bowl of tap water. The plate was dried by blotting the inverted plate onto paper towels and the remaining dye in the wells was solubilized with 1% SDS prior to reading the absorbance of the wells with a plate reader at 595 nm.

In assay [1], “Fibronectin Streptavidin (streptavidin having incorporated therein RGD with flanking amino acids as in fibronectin) (designed binder)” came in with an absorbance at 595 nm (adhered rat aortic endothelial cells) (absorbance at 595 nm) of 0.3 and a coating concentration at saturation of cell adhesion of 100 nM.

Turning to GRADSP, in assay [2], the “inhibitory effect on cell adhesion” value is recorded as “no noticeable inhibitory effect”. Turning to GRGDSP [RGD peptide], the “inhibitory effect on cell adhesion at 100 μm peptide” value in assay [2] (100 μM peptide) is “inhibited cell adhesion”. The “inhibitory effect on cell adhesion” value in assay [2] is listed as “inhibited cell adhesion in a dose-dependent manner”. In addition, the “inhibition of cell adhesive activity of the RGD mutants” value in assay [3] is listed as “can be inhibited”. Consider GRGESP, for which the “inhibitory effect on cell adhesion” value in assay [2] is reported as “no noticeable inhibitory effect”. In assay [1], “Osteopontin Streptavidin (streptavidin having incorporated therein RGD with flanking amino acids as in osteopontin) (designed binder)” came in with an absorbance at 595 nm (adhered rat aortic endothelial cells) (absorbance at 595 nm) of 0.3 and a coating concentration at saturation of cell adhesion of 100 nM. Consider “Wild type streptavidin: naturally occurring tetrameric biotin-binding protein of Streptomyces avidinii, SEQ ID NO:1”, for which the koff in assay [4] is 3.3±0.1×10^−6 /sec. For the same molecule, the “cell adhesion (absorbance at 595 nm, visual inspection)” value in assay [5] is listed as “does not display any cell adhesion above control levels”; in assay [5] (listed as wild type), “comparable to those for 1% SDS”.

B1: FN-SA: streptavidin mutant incorporating the RGD sequence and flanking residues from fibronectin, SEQ ID NO:2 (protein)
chain: MRKIVVAAIAVSLTTVSITASASADPSKDSKAQVSAAEAGITGTWYNQLGSTFIVTAGADGALTGTYESAVGNAESRYVLTGRYDSAPGRGDSPGSGTALGWTVAWKNNYRNAHSATTWSGQYVGGAEARINTQWLLTSGTTEANAWKSTLVEHDTFTKVKPSAASIDAAKKAGVNNGNPLDAVQQ
Regarding B1, in assay [4], the koff was 3.28e-06 s⁻¹.

B2: OSTP-SA: streptavidin mutant incorporating the RGD sequence and flanking residues from osteopontin, SEQ ID NO:3 (protein)
chain: B1 chain with P94V
In assay [4], B2 displayed a koff of 3.13e-06 s⁻¹.

As usually defined, the koff is the first-order rate constant of dissociation.
